Laboratory results taken from patent US20260262643A1, “HERBICIDAL BENZOXAZINES” (FMC CORPORATION, priority 2022, published 2026).

Key:
corn = experiment: Test A preemergence; type: in vivo, Zea mays; settings: 0 to 100 scale; for Corn plant response rating (crop injury, 0 = no effect, 100 = complete kill) at 125 g/ha / Corn plant response rating (crop injury, 0 = no effect, 100 = complete kill) at 500 g/ha: Zea mays, pre-emergence, 240 h
How it was run: (§1)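 Weeds and crops in loam–sand blend were sprayed preemergence onto soil or postemergence at 2–10 cm (one- to two-leaf stage). Test chemicals were in a non-phytotoxic solvent with surfactant. After 10 days in the greenhouse, injury was rated visually against untreated controls on a 0 (no effect) to 100 (complete control) scale.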

foxtail, giant = experiment: Test A preemergence; type: in vivo, Setaria faberi; settings: 0 to 100 scale; for pest or weed control at 125 g/ha / pest or weed control at 500 g/ha: Setaria faberi, pre-emergence, 240 h, read-out: Plant response rating, Foxtail, Giant
How it was run: as §1

kochia [1] = experiment: Test A preemergence; type: in vivo, Bassia scoparia; settings: 0 to 100 scale; for pest or weed control at 125 g/ha / pest or weed control at 500 g/ha: Bassia scoparia, pre-emergence, 240 h, read-out: Plant response rating, Kochia
How it was run: as §1

oat, wild = experiment: Test A preemergence; type: in vivo, Avena fatua; settings: 0 to 100 scale; for pest or weed control at 125 g/ha / pest or weed control at 500 g/ha: Avena fatua, pre-emergence, 240 h, read-out: Plant response rating, Oat, Wild
How it was run: as §1

wheat = experiment: Test A preemergence; type: in vivo, Triticum aestivum; settings: 0 to 100 scale; for plant injury at 125 g/ha / plant injury at 500 g/ha: Triticum aestivum, pre-emergence, 240 h, read-out: Plant response rating, Wheat
How it was run: as §1

kochia [2] = experiment: Test A postemergence; type: in vivo, Bassia scoparia; settings: postemergence, 10 days; for pest or weed control at 125 g/ha / pest or weed control at 500 g/ha: Bassia scoparia, post-emergence, 240 h; for pest or weed control at 125 g/ha: read-out: Kochia plant response rating; for pest or weed control at 500 g/ha: read-out: Plant response rating, Kochia
How it was run: as §1

ryegrass, Italian = experiment: Test A postemergence; type: in vivo, Lolium multiflorum; settings: postemergence, 10 days; for pest or weed control at 125 g/ha / pest or weed control at 500 g/ha: Lolium multiflorum, post-emergence, 240 h; for pest or weed control at 125 g/ha: read-out: Ryegrass, Italian plant response rating; for pest or weed control at 500 g/ha: read-out: Plant response rating, Ryegrass, Italian
How it was run: as §1

soybean = experiment: Test A postemergence; type: in vivo, Glycine max; settings: postemergence, 10 days; for plant injury at 125 g/ha / plant injury at 500 g/ha: Glycine max, post-emergence, 240 h; for plant injury at 125 g/ha: read-out: Soybean plant response rating; for plant injury at 500 g/ha: read-out: Plant response rating, Soybean
How it was run: as §1

galium = experiment: Test A postemergence; type: in vivo, Galium aparine; settings: postemergence, 10 days; for pest or weed control at 125 g/ha / pest or weed control at 500 g/ha: Galium, post-emergence, 240 h; for pest or weed control at 125 g/ha: read-out: Galium plant response rating; for pest or weed control at 500 g/ha: read-out: Plant response rating, Galium
How it was run: as §1

horseweed = experiment: Test A postemergence; type: in vivo, Erigeron canadensis; settings: postemergence, 10 days; for pest or weed control at 125 g/ha / pest or weed control at 500 g/ha: Erigeron canadensis, post-emergence, 240 h; for pest or weed control at 125 g/ha: read-out: Horseweed plant response rating; for pest or weed control at 500 g/ha: read-out: Plant response rating, Horseweed
How it was run: as §1

barnyardgrass = experiment: Test B flooded paddy test; type: in vivo, Echinochloa crus-galli; settings: 250 g ai/ha, Flood, 13 days, 0 to 100 scale (0 no effect, 100 complete control); for pest or weed control at 250 g/ha: Echinochloa crus-galli, 312 h, read-out: Plant response rating, Barnyardgrass
How it was run: (§2)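 Each species was raised to the 2-leaf stage. At treatment, each pot received floodwater 3 cm deep, with the chemical delivered into the water. Greenhouse holding followed for 13 days, then percent control was estimated visually versus untreated pots.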

rice = experiment: Test B flooded paddy test; type: in vivo, Oryza sativa; settings: 250 g ai/ha, Flood, 13 days, 0 to 100 scale (0 no effect, 100 complete control); for plant injury at 250 g/ha: Oryza sativa, 312 h, read-out: Plant response rating, Rice
How it was run: as §2

sedge, umbrella = experiment: Test B flooded paddy test; type: in vivo, Cyperus difformis; settings: 250 g ai/ha, Flood, 13 days, 0 to 100 scale (0 no effect, 100 complete control); for pest or weed control at 250 g/ha: Cyperus difformis, 312 h, read-out: Plant response rating, Sedge, Umbrella
How it was run: as §2

[3] = 500 g ai/ha, visual injury after 10 days, 0 is no effect, 100 is complete control
[4] = 500 g ai/ha, visual injury, 0 to 100 scale (0 no effect, 100 complete control)
[5] = 125 g ai/ha, 0 to 100 scale (0 no effect, 100 complete control)
[6] = 125 g ai/ha, 0 to 100 scale, 0 no effect, 100 complete control

| Structure (SMILES) | Corn plant response rating (crop injury, 0 = no effect, 100 = complete kill) at 125 g/ha (corn; 125 g ai/ha) [%] | pest or weed control at 125 g/ha (foxtail, giant; 125 g ai/ha) [%] | Plant response rating, Kochia (kochia [1]; 125 g ai/ha) | pest or weed control at 125 g/ha (oat, wild; 125 g ai/ha) [%] | plant injury at 125 g/ha (wheat; 125 g ai/ha) [%] | pest or weed control at 125 g/ha (kochia [2]; [5]) [%] | pest or weed control at 125 g/ha (ryegrass, Italian; [5]) [%] | plant injury at 125 g/ha (soybean; [5]) [%] | pest or weed control at 125 g/ha (galium; [5]) [%] | pest or weed control at 125 g/ha (horseweed; [5]) [%] | Corn plant response rating (crop injury, 0 = no effect, 100 = complete kill) at 500 g/ha (corn; [3]) [%] | pest or weed control at 500 g/ha (kochia [1]; [3]) [%] | plant injury at 500 g/ha (wheat; [3]) [%] | pest or weed control at 500 g/ha (kochia [2]; [4]) [%] | pest or weed control at 500 g/ha (ryegrass, Italian; [4]) [%] | plant injury at 500 g/ha (soybean; [4]) [%] | pest or weed control at 500 g/ha (galium; [4]) [%] | pest or weed control at 500 g/ha (horseweed; [4]) [%] | plant injury at 250 g/ha (rice) [%] | pest or weed control at 250 g/ha (sedge, umbrella) [%] | also measured |
| --- | --- | --- | --- | --- | --- | --- | --- | --- | --- | --- | --- | --- | --- | --- | --- | --- | --- | --- | --- | --- | --- |
| CC(C)c1ncn(-c2cc(C(=O)N3C[C@H](C)Oc4c(Cl)cccc43)c3ccccc3c2)n1 [Compound 146] | 0 | 80 | 10 | 0 | 0 | 80 | 20 | 50 | 50 | 0 | – | – | – | – | – | – | – | – | – | – | Plant response rating, Corn (corn; [3]): 0; Plant response rating, Foxtail, Giant (foxtail, giant; [3]): 100; Plant response rating, Kochia (kochia [1]; [3]): 30; Plant response rating, Oat, Wild (oat, wild; [3]): 20; Plant response rating, Wheat (wheat; [3]): 0; Plant response rating, Kochia (kochia [2]; [4]): 90; Plant response rating, Ryegrass, Italian (ryegrass, Italian; [4]): 40; Plant response rating, Soybean (soybean; [4]): 100; Plant response rating, Galium (galium; [4]): 80; Plant response rating, Horseweed (horseweed; [4]): 0; Plant response rating, Barnyardgrass (barnyardgrass): 0; Plant response rating, Rice (rice): 0; Plant response rating, Sedge, Umbrella (sedge, umbrella): 0 |
| C[C@H]1CN(C(=S)c2cccc(-n3cncn3)c2)c2cccc(Cl)c2O1 [Compound 139, [(2S)-8-Chloro-2,3-dihydro-2-methyl-4H-1,4-benzoxazin-4-yl][3-(1H-1,2,4-triazol-1-yl)phenyl]methanethione] | 0 | 90 | – | 20 | 20 | 50 | 60 | 90 | 80 | 0 | 40 | 0 | 20 | 80 | 100 | 100 | 90 | 0 | 0 | 75 | pest or weed control at 500 g/ha (foxtail, giant; [3]): 100%; pest or weed control at 125 g/ha (kochia [1]; 125 g ai/ha): 0%; pest or weed control at 500 g/ha (oat, wild; [3]): 90%; pest or weed control at 250 g/ha (barnyardgrass): 15% |
| CC(C)c1ncn(-c2cc3c(c(C(=O)N4C[C@H](C)Oc5c(Cl)cccc54)c2)OCC3)n1 [Compound 147] | 0 | – | – | 20 | 20 | 60 | 50 | 100 | 100 | 0 | 10 | 90 | 50 | 90 | 80 | 100 | 100 | 0 | 0 | 95 | pest or weed control at 125 g/ha (kochia [1]; 125 g ai/ha): 70%; pest or weed control at 500 g/ha (oat, wild; [3]): 90%; pest or weed control at 250 g/ha (barnyardgrass): 0% |
| CC(C)c1ncn(-c2cc(C(=O)N3C[C@H](C)Oc4c(Cl)cccc43)c3ccccc3c2)n1 [Compound 145] | – | – | 70 | – | – | – | – | – | – | – | 0 | 50 | 0 | 80 | 40 | 100 | 70 | 0 | 0 | 0 | Plant response rating, Corn (corn; 125 g ai/ha): 0; Plant response rating, Foxtail, Giant (foxtail, giant; 125 g ai/ha): 70; pest or weed control at 500 g/ha (foxtail, giant; [3]): 80%; Plant response rating, Oat, Wild (oat, wild; 125 g ai/ha): 0; Plant response rating, Oat, Wild (oat, wild; [3]): 50; Plant response rating, Wheat (wheat; 125 g ai/ha): 0; Kochia plant response rating (kochia [2]; [6]): 70; Ryegrass, Italian plant response rating (ryegrass, Italian; [6]): 30; Soybean plant response rating (soybean; [6]): 40; Galium plant response rating (galium; [6]): 60; Horseweed plant response rating (horseweed; [6]): 0; Plant response rating, Barnyardgrass (barnyardgrass): 45 |
